One test relates to HDL. The test is described as follows: HDL surface polarity, Laurdan General Polarization (Gp) assay. Details: species or system human. The following applies: HDL 100 μg/ml, lyso-DGTS 0-100 μg/ml. Here is the method:
The fluorescence emission spectra of Laurdan were obtained using at excitation/emission 340/400-520 nm. The value of Gp of Laurdan was calculated using the formula: Gp=(I435−I490)/(I435+I490). Each experiment was repeated separately at least three times. *p<0.05, ***p<0.0001 related to the control (HDL without lyso-DGTS). Statistics were analyzed using T-test Graphpad prism 5 software.
HDL particles are plurimolecular, quasi-spherical or discoid, pseudomicellar complexes predominantly composed of polar lipids solubilized by apolipoproteins. In order to determine a possible interaction between lyso-DGTS and the HDL lipid core, the Laurdan General Polarization (Gp) assay was used. […] This interaction may cause a change in its physical state and lipid core polarity and thus affect its functionality.

The target of a further test is T1, serum PON1 (Mus musculus, UniProt P52430).
T1 construct: from tissue; host or cells: serum of Balb/c mice
T1 sequence (P52430 whole entry): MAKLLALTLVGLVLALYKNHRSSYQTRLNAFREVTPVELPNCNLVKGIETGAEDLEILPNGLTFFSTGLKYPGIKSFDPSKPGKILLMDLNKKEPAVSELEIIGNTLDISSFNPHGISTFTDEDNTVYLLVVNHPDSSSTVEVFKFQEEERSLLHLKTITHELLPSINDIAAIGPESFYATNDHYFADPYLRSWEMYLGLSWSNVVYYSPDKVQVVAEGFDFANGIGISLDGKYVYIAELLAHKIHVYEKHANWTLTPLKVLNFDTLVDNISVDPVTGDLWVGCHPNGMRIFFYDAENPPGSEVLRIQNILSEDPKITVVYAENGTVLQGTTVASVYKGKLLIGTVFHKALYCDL
In words: Serum PON1 lactonase activity of Balb/c mice fed with high fat diet. Format: in vivo. The following applies: HFD mice, lyso-DGTS 1.43 mg/ml via s.c. osmotic mini-pump, 28 days; vs vehicle. The protocol: (§1) Eight weeks old Balb/c mice where fed with normal rodent diet (the “non” group n=11) for 12 weeks or with high-fat diet (HFD) for 8 weeks. After 8 weeks, the HFD group was divided into two groups both treated via osmotic mini-pumps implanted subcutaneously: (1) vehicle group (the pumps contained 100 μl of DDW+2% Tween 80; n=9); (2) Lyso-DGTS group (the pumps contained 100 μl lyso-DGTS 1.4 mg/ml in DDW+2% Tween 80; n=1). The mice then continued with the same diet for another 4 weeks. The pumps injected 3.5 μl solution each day for 28 days until the end of the experiment. Blood was drawn and centrifuged at 2000 rpm for five minutes, and the serum was stored at −70° C. until the analyses. Clinical parameters were measured. Serum diluted by 20 with PBS and PON1 lactonase activity was measured using dihydrocumarine assay.
The effect of lyso-DGTS on lactonase PON1 activity was examined using Balb/c mice fed with HFD. […] At the end of the protocol, blood was withdrawn and clinical parameters and lactonase PON1 activity were measured. […] Lactonase PON1 activity of the mice serum was measured using dehydrocumarine assay.

The subject of test [1] is J774A.1 macrophages. The test is described as follows: HDL-mediated cholesterol efflux from macrophage cells. Format: cell-based, murine. The following applies: 16.5% without lyso-DGTS. Here is the method: Cholesterol efflux Fluorometric Assay Kit (Cell-Based), Biovision was used to measure the effect of lyso-DGTS on HDL-cholesterol efflux.
J774.1 macrophage cells were grown in RPMI 1640 media containing 10% FBS in cell culture flask till ˜90% confluence (37° C. incubator containing 5% CO2). The cells were splitted under sterile conditions using basic cell culture techniques and plate to approximately 1×10^5 cells/well in a 96-well plate (white plate with clear bottom) using 100 μl media/well. After 2 h, the cells attached to the plates, washed with RPMI 1640 media (no serum added) and labeled with 50 μl labeling reagent and 50 μl equilibration buffer, supplied by the kit, for 16 h. 100 μl equilibration buffer alone were added to the background control for measuring background fluorescence. The cells were washed with media and treated for another 4-6 h with 100 μl of RPMI 1640 media containing HDL (25 μg protein) preincubated with lyso-DGTS at various concentrations (0, 10, 20, 50, and 100 μg/ml) for 4 h. To the negative control was added RPMI 1640 media alone.
The fluorescence of the supernatant was measured (excitation/emission=482/515 nm). The cells were solubilized adding 100 μl of Cell Lysis Buffer and shaking on a plate shaker for 30 min at room temperature, and its fluorescence was also measured.
Cholesterol efflux of the treatments was calculated by dividing the fluorescence intensity of the media by total fluorescence intensity of the cell lysate of the same treatment and media.
HDL removes cholesterol from cells, including macrophages. HDL particles were incubated with lyso-DGTS at different concentrations. The HDL ability to efflux cholesterol from J774A.1 macrophages was measured using flouromtric assay (cell-based cholesterol efflux flouromtric assay kit, supplied by Biovision) and expressed as % of cholesterol efflux. […] The cholesterol removal enhanced from 16.5% (without lyso-DGTS) to 22.5%, 31.5%, 36.5%, and 46.5% after incubation with lyso-DGTS at 10, 20, 50, and 100 μg/ml, respectively (FIG. 8).

Test [2] has as its system J774A.1 macrophages. In words: rePON1 influx to J774A.1 macrophages (FITC-rePON1, FACS). The format is cell-based, murine. The following applies: 16 h, 61.62 for rePON1-FITC alone. Here is the method:
rePON1 (2 mg/ml) was reacted with fluorescein isothiocyanate (FITC) (200 μg/ml) for 1 h at 37° C. in the dark in borate buffer (PH=8.6). Glycine 10 mM was added and the solution was dialyzed using PBS buffer to remove FITC excess. RePON1-FITC conjugate (50 μg/ml) was incubated with lyso-DGTS at different concentration (10, 20, 50 and 100 μg/ml) into RPMI for 2 h. The solution was added to J774A.1 macrophages and incubated for 16 h. Cells were washed three times with sterile PBS buffer (0.1% sodium azid, 0.2% bovine serum albumin (BSA)), harvested in PBS (buffer) and analyzed by fluorescence-activated cell sorting (FACS) (Facscalibur 4ca). Results are presented as mean fluorescence intensity (MFI).
RePON1 was labeled with FITC and incubated with lyso-DGTS at different concentrations (10, 20, 50, and 100 μg/ml) for 2 h. Each solution was added to J774A.1 macrophages and incubated at 37° C. for 16 h, and then analyzed by fluorescence-activated cell sorting (FACS). […] The MFI increased from 61.62 for rePON1-FITS alone to 131.02, 368.61, 386.46, and 517.45 for rePON1 incubated with lyso-DGTS at 10, 20, 50, and 100 μg/ml, respectively (FIG. 6B).

Test [3] is described as follows: Clinical parameters of the in-vivo experiment (HFD fed Balb/c mice). The following applies: lyso-DGTS via s.c. osmotic mini-pump, 28 days; for Glucose: p < 0.05 related to vehicle group. Details: unit not given here. The protocol: as §1
The effect of lyso-DGTS on lactonase PON1 activity was examined using Balb/c mice fed with HFD. Three groups of Balb/c mice were used: 1) the “non” group […] mice which was fed with normal rodent diet for 12 weeks; 2) the “vehicle” group n=9 mice which was fed with HFD for 8 weeks and then continued with the same diet for another 4 weeks with the injection of DDW+2% Tween via osmotic mini-pumps implanted subcutaneously; and 3) the lyso-DGTS group n=1 mice which was fed similar to the vehicle group and injected with lyso-DGTS at 1.43 mg/ml in DDW+2% Tween 80 (FIG. 14). At the end of the protocol, blood was withdrawn and clinical parameters and lactonase PON1 activity were measured. […] Lactonase PON1 activity of the mice serum was measured using dehydrocumarine assay.

Regarding `CC/C=C\C/C=C\C/C=C\C/C=C\C/C=C\CCCC(=O)OCC(O)COCCC(C(=O)[O-])[N+](C)(C)C` (stereo not drawn) [lyso-DGTS, lyso-diacylglyceryltrimethylhornmoserine], the “effect on HDL Gp values (Laurdan)” value in the test with HDL is “significantly decreased the HDL Gp values at a dose dependent manner at 20, 50, and 100 μg/ml”. At serum PON1, the “increase of serum lactonase PON1 activity” value is ~2.3 units. Besides, the HDL-mediated cholesterol efflux is recorded as 22.5% in the test with J774A.1 macrophages [1] (HDL incubated with 10 μg/ml lyso-DGTS), 31.5% in the test on J774A.1 macrophages [1] (HDL incubated with 20 μg/ml lyso-DGTS), 36.5% in the test on J774A.1 macrophages [1] (HDL incubated with 50 μg/ml lyso-DGTS) and 46.5% in the test with J774A.1 macrophages [1] (HDL incubated with 100 μg/ml lyso-DGTS). The “mean fluorescence intensity (MFI) of FITC-rePON1 in cells” value with J774A.1 macrophages [2] (10 μg/ml lyso-DGTS) came to 131.02; in the test on J774A.1 macrophages [2] (20 μg/ml lyso-DGTS), 368.61; in the test with J774A.1 macrophages [2] (50 μg/ml lyso-DGTS), 386.46; in the test on J774A.1 macrophages [2] (100 μg/ml lyso-DGTS), 517.45. In test [3], the Cholesterol is 4.03 ± 0.40. In addition, in test [3], the HDL worked out at 4.37 ± 0.42. Moreover, in test [3], the Triglycerides stood at 0.84 ± 0.26. For the same compound, the Glucose in test [3] came to 5.99±1.4; in test [3] (listed as Lyso-DGTS), 5.99 ± 1.4.

(Values after patent US11591288B2, “Compositions and methods for treating atherosclerotic cardiovascular disease” (GAVISH-GALILEE BIO APPLICATIONS LTD., priority 2017, dated 2023).)
